Measurements published in patent US12496329B2, “Methods of using and compositions including an incretin analog” (Eli Lilly and Company, priority 2021, dated 2025).

Tests used:
[1] = SAD study: safety and tolerability; format: in vivo, human
Description: Studies are designed to evaluate the safety, tolerability, pharmacodynamics (PD) and pharmacokinetics (PK) of the GGG tri-receptor agonist (SEQ ID NO:1) in healthy individuals. The SAD study is a randomized, investigator- and participant-blind, placebo-controlled, single-dose, single-site, dose-escalation study conducted in healthy individuals (e.g., overtly healthy females or males aged 21-65 years, inclusive, with a BMI 19-40 kg/m^2 at screening).
Six dose levels of the GGG tri-receptor agonist-0.1, 0.3, 1.0, 3.0, 4.5 and 6.0 mg—are explored in the SAD study, as well as placebo (i.e., 0.0 mg). A dose escalation of the GGG tri-receptor agonist is assessed in cohorts of healthy individuals (e.g., 6 individuals receiving the GGG tri-receptor agonist and 2 individuals receiving placebo per cohort). Staggered dosing is performed for each cohort, in which a new higher dose of the GGG tri-receptor agonist is administered. All injections are administered into the SC tissue of an abdominal wall, in a right or left lower quadrant.
Safety analyses: Safety parameters assessed during the study included: AEs (with special interest to GI AEs such as nausea, vomiting, and diarrhea), laboratory parameters (with special attention to hepatic and pancreatic biomarkers), physical examinations/medical assessments, vital signs and ECGs, BW, injection site reactions, hypersensitivity reactions, and glucose monitoring (with special attention to hypoglycemia).

Phase 2 study for T2DM = format: in vivo, human; details: 16 week data; start 1 or 2 mg, steps of 1, 2, 3 or 4 mg to maximum 12 mg QW SC
Description: Studies are designed to further evaluate the effectiveness and safety of the GGG tri-receptor agonist (SEQ ID NO: 1) in a larger population of individuals with diabetes. The study is a randomized, investigator- and participant-blind, placebo-controlled study conducted in individuals with diabetes (i.e., females or males aged 18-75 years, inclusive, with T2DM for at least 3 months and HbA1c at lead-in and screening of ≥7.0% and ≤10.5% and treated with diet and exercise alone or a stable dose of metformin for at least 3 months prior to screening, with stable body weight for 3 months prior to randomization and with a BMI of 25-50 kg/m^2 at screening).
Dose escalation of the GGG tri-receptor agonist is assessed over 36 weeks in cohorts administered the GGG tri-receptor agonist, dulaglutide or placebo. A first cohort of 50 individuals is administered 2.0 mg of the GGG tri-receptor agonist for Weeks 1-4, 4.0 mg for the Weeks 5-8, 8.0 mg for Weeks 9-12, and then 12.0 mg for Weeks 13-36. […] A third cohort of 20 individuals is administered 2.0 mg of the GGG tri-receptor agonist for Weeks 1-4, 4.0 mg for Weeks 5-8, and then 8.0 mg for Weeks 9-36. […]
Blood samples are collected pre-dose and at Week 24 for HbA1c. […] In addition, change in body weight (kg) is assessed from baseline to Week 24 and to Week 36. […]

CC[C@H](C)[C@H](NC(=O)[C@H](Cc1ccccc1)NC(=O)[C@H](C)NC(=O)C(C)(C)NC(=O)[C@H](CCC(N)=O)NC(=O)[C@H](C)NC(=O)[C@H](CCCCNC(=O)COCCOCCNC(=O)CC[C@H](NC(=O)CCCCCCCCCCCCCCCCCCC(=O)O)C(=O)O)NC(=O)[C@H](CCCCN)NC(=O)[C@H](CC(=O)O)NC(=O)[C@H](CC(C)C)NC(=O)[C@](C)(CC(C)C)NC(=O)[C@@H](NC(=O)[C@H](CO)NC(=O)[C@H](Cc1ccc(O)cc1)NC(=O)[C@H](CC(=O)O)NC(=O)[C@H](CO)NC(=O)[C@@H](NC(=O)[C@H](Cc1ccccc1)NC(=O)[C@@H](NC(=O)CNC(=O)[C@H](CCC(N)=O)NC(=O)C(C)(C)NC(=O)[C@@H](N)Cc1ccc(O)cc1)[C@@H](C)O)[C@@H](C)O)[C@@H](C)CC)C(=O)N[C@@H](CCC(=O)O)C(=O)N[C@@H](Cc1ccc(O)cc1)C(=O)N[C@@H](CC(C)C)C(=O)N[C@@H](CC(C)C)C(=O)N[C@@H](CCC(=O)O)C(=O)NCC(=O)NCC(=O)N1CCC[C@H]1C(=O)N[C@@H](CO)C(=O)N[C@@H](CO)C(=O)NCC(=O)N[C@@H](C)C(=O)N1CCC[C@H]1C(=O)N1CCC[C@H]1C(=O)N1CCC[C@H]1C(=O)N[C@@H](CO)C(N)=O [GGG tri-receptor agonist, Y-Aib-QGTFTSDYSI-αMeL-LDKK((2-[2-(2-amino-ethoxy)-ethoxy]-acetyl)-(γGlu)-CO-(CH2)18-CO2H)AQ-Aib-AFIEYLLEGGPSSGAPPPS-NH2]
incidence of GI AEs (emesis, nausea) ([1]; Phase 1 dosing study, 6.0 mg or higher doses): higher-than-expected incidence of GI AEs
individuals reporting TEAEs ([1]; single SC dose): 97.1%
injection-site reactions ([1]; single SC dose): No injection-site reactions
individuals reporting TEAEs related to study treatment ([1]; single SC dose, 20 individuals): 57.1%
hypoglycemic episodes ([1]; single SC dose, all asymptomatic): low across all groups
severity of AEs ([1]; single SC dose, dose-dependent): mild to moderate in severity
pulse rate ([1]; single SC dose, returned to baseline or near-baseline by Day 29): Dose-related increases in pulse rate
tolerability ([1]; single SC doses of 0.1, 0.3, 1.0 and 3.0 mg): well tolerated
incidence of GI events (vomiting, abdominal distension, nausea) ([1]; single SC doses of 4.5 and 6.0 mg): increased incidence of GI events
tolerability profile of dosing regimens (Phase 2 study for T2DM): acceptable tolerability profiles
